Experimental data reported in US12612407B2, “Imidazo[2,1-f][1,2,4]triazin-4-amine derivatives as TLR7 agonist” (BEIGENE, LTD., priority 2020, dated 2026).

What follows are molecules tested against T1, human TLR7 (Homo sapiens, UniProt Q9NYK1) (assay: HEK293-Blue hTLR7 Reporter Assay (QUANTI-BLUE, SEAP readout)). Conditions: HEK-Blue-hTLR7 cells, 24 hrs treatment, Table 1, B1-B232.
T1 construct: host or cells: HEK293 (HEK-Blue hTLR7)
T1 sequence (Q9NYK1 27-1049): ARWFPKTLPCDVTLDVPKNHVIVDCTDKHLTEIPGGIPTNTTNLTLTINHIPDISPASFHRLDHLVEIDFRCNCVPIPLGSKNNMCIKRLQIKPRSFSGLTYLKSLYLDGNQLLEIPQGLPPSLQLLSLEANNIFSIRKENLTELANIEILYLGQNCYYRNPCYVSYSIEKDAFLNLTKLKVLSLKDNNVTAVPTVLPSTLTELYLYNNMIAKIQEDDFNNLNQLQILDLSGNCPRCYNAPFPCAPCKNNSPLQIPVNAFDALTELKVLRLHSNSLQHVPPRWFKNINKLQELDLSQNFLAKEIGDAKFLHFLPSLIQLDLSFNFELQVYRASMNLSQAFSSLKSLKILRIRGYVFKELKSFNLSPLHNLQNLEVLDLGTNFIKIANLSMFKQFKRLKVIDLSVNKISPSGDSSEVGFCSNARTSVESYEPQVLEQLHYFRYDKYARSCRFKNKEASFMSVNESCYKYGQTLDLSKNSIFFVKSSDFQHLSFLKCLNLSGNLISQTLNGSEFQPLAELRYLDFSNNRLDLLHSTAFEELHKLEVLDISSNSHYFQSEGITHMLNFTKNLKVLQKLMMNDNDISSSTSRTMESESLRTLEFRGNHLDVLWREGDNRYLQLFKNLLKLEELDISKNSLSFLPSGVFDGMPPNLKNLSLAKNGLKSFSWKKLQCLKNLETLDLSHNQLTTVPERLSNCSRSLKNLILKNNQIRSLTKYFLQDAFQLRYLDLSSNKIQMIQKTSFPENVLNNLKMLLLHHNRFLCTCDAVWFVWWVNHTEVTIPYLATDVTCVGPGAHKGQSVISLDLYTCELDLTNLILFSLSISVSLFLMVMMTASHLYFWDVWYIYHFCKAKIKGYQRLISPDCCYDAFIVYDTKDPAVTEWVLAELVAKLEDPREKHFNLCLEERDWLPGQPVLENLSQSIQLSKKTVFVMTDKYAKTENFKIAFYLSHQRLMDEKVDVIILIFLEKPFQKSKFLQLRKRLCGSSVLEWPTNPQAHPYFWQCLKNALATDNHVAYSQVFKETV
Type: cell-based
Experimental: HEK293-Blue hTLR7 Reporter Assay: HEK-Blue-hTLR7 cell line (Invivogen, Cat. No. hkb-htlr7) was designed so that the expression of the secreted embryonic alkaline phosphatase (SEAP) was induced by activating NF-κ and AP-1 via stimulating human TLR7 with TLR7 agonists. HEK-Blue-hTLR7 cells were seeded at a density of 4×10^4 cells/well in a volume of 180 μL in a 96-well plate in DMEM (Cat. No. 11965-092) supplemented with 10% (v/v) heat-inactivated fetal bovine serum (FBS) (Gibco, 10099-1441), 100 U/ml penicillin and 100 μg/ml streptomycin (Gibco, 15140122) containing 50 U/mL penicillin, […] and 10% (v/v) heat-inactivated fetal bovine serum. The cells were settled for 5 hrs, then treated with increasing amounts of tested compounds at 37° C. for 24 hrs. Then 20 μL of the supernatant from each well was incubated with 180 μL Quanti-blue substrate solution at 37° C. for 10-30 mins before the activity of the SEAP was determined at 620-655 nm using a spectrophotometer. The EC50 value for each compound was calculated with GraphPad Prism software using the sigmoidal dose-response function.

Molecule	EC50 [nM]
CCCC(CC)Oc1nc(N)c2ncc(Cc3cnc(N4CCC(N(C)C)CC4)c(C)c3)n2n1 (stereo not shown) [Compound B163, 7-((6-(4-(dimethylamino)piperidin-1-yl)-5-methylpyridin-3-yl)methyl)-2-(hexan-3-yloxy)imidazo[2,1-f][1,2,4]triazin-4-amine]	2.5
CCCCOc1nc(N)c2ncc(Cc3cnc(N4CCC(N5CCOCC5)CC4)c(C)c3)n2n1 [Compound B108, 2-butoxy-7-((5-methyl-6-(4-morpholinopiperidin-1-yl)pyridine-3-yl)methyl)imidazo[2,1-f][1,2,4]triazin-4-amine]	159
2-butyl-7-((5-methyl-6-(piperazin-1-yl)pyridin-3-yl)methyl)imidazo[2,1-f][1,2,4]triazine-2,4-diamine [Compound B13]	48
CCCCOc1nc(N)c2ncc(Cc3ccc(C4CCNCC4)cn3)n2n1 [Compound B15, 2-butoxy-7-((5-(piperidin-4-yl)pyridin-2-yl)methyl)imidazo[2,1-f][1,2,4]triazin-4-amine]	509
CCC[C@@H](C)Oc1nc(N)c2ncc(Cc3cnc(N4CCC(N(C)C)CC4)c(C)c3)n2n1 [Compound B127, (R)-7-((6-(4-(dimethylamino)piperidin-1-yl)-5-methylpyridin-3-yl)methyl)-2-(pentan-2-yloxy)imidazo[2,1-f][1,2,4]triazin-4-amine]	56
2-butoxy-7-((5-methyl-6-(2,7-diazaspiro[3.5]nonan-7-yl)pyridin-3-yl)methyl)imidazo[2,1-f][1,2,4]triazin-4-amine [Compound B86]	202
CCCCOc1nc(N)c2ncc(Cc3cnc(N4CCNCC4)cc3Cl)n2n1 [Compound B7, 2-butoxy-7-((4-chloro-6-(piperazin-1-yl)pyridin-3-yl)methyl)imidazo[2,1-f][1,2,4]triazin-4-amine]	2380
CNCC(C)Oc1nc(N)c2ncc(Cc3cnc(N4CCNCC4)c(C)c3)n2n1 (stereo not shown) [Compound B206, 7-((5-methyl-6-(piperazin-1-yl)pyridin-3-yl)methyl)-2-((1-(methylamino)propan-2-yl)oxy)imidazo[2,1-f][1,2,4]triazin-4-amine]	5610
2-butoxy-7-((6-(4-ethylpiperazin-1-yl)-5-methylpyridin-3-yl)methyl)imidazo[2,1-f][1,2,4]triazin-4-amine [Compound B115]	190
C=CCCOc1nc(N)c2ncc(Cc3cnc(N4CCNCC4)c(C)c3)n2n1 [Compound B80, 2-(but-3-en-1-yloxy)-7-((5-methyl-6-(piperazin-1-yl)pyridin-3-yl)methyl)imidazo[2,1-f][1,2,4]triazin-4-amine]	242
CCCCOc1nc(N)c2ncc(Cc3ccc(C4CCNCC4)c(C)c3)n2n1 [Compound B64, 2-butoxy-7-(3-methyl-4-(piperidin-4-yl)benzyl)imidazo[2,1-f][1,2,4]triazin-4-amine]	448
CCCCOc1nc(N)c2ncc(Cc3cnc(N4CCCNCC4)c(C)c3)n2n1 [Compound B39, 7-((6-(1,4-diazepan-1-yl)-5-methylpyridin-3-yl)methyl)-2-butoxyimidazo[2,1-f][1,2,4]triazin-4-amine]	465
CCCCOc1nc(N)c2ncc(Cc3ccc(N4CCNCC4)c(OCCC)c3)n2n1 [Compound B99, 2-butoxy-7-(4-(piperazin-1-yl)-3-propoxybenzyl)imidazo[2,1-f][1,2,4]triazin-4-amine]	926
CCCCOc1nc(N)c2ncc(Cc3cnc(N4CCN(CC(=O)N(C)C)CC4)c(C)c3)n2n1 [Compound B72, 2-(4-(5-((4-amino-2-butoxyimidazo[2,1-f][1,2,4]triazin-7-yl)methyl)-3-methylpyridin-2-yl)piperazin-1-yl)-N,N-dimethylacetamide]	493
CCCCOc1nc(N)c2ncc(Cc3cnc(N4CCN(C(=O)CN(C)C)[C@@H](C)C4)c(C)c3)n2n1 [Compound B179, (S)-1-(4-(5-((4-amino-2-butoxyimidazo[2,1-f][1,2,4]triazin-7-yl)methyl)-3-methylpyridin-2-yl)-2-methylpiperazin-1-yl)-2-(dimethylamino)ethan-1-one]	38
CCCCNc1nc(N)c2ncc(Cc3ccc(C4CCNCC4)cc3)n2n1 [Compound B18, N2-butyl-7-(4-(piperidin-4-yl)benzyl)imidazo[2,1-f][1,2,4]triazine-2,4-diamine]	171
CCCCOc1nc(N)c2ncc(Cc3cnc(N4CCNCC4)c(Cl)c3)n2n1 [Compound B2, 2-butoxy-7-((5-chloro-6-(piperazin-1-yl)pyridin-3-yl)methyl)imidazo[2,1-f][1,2,4]triazin-4-amine]	434
CCCCOc1nc(N)c2ncc(Cc3cnc(N4CCC5(CCNCC5)CC4)c(C)c3)n2n1 [Compound B131, 2-butoxy-7-((5-methyl-6-(3,9-diazaspiro[5.5]undecan-3-yl)pyridin-3-yl)methyl)imidazo[2,1-f][1,2,4]triazin-4-amine]	98
CCCC(C)Oc1nc(N)c2ncc(Cc3cnc(N4CCNCC4)c(C)c3)n2n1 (stereo not shown) [Compound B65, 7-((5-methyl-6-(piperazin-1-yl)pyridin-3-yl)methyl)-2-(pentan-2-yloxy)imidazo[2,1-f][1,2,4]triazin-4-amine]	26
CCCC(CCC)Oc1nc(N)c2ncc(Cc3cnc(N4CCN(C(=O)CN(C)C)CC4)c(C)c3)n2n1 [Compound B188, 1-(4-(5-((4-amino-2-(heptan-4-yloxy)imidazo[2,1-f][1,2,4]triazin-7-yl)methyl)-3-methylpyridin-2-yl)piperazin-1-yl)-2-(dimethylamino)ethan-1-one]	3.6
CCCNc1nc(N)c2ncc(Cc3cnc(N4CCNCC4)c(C)c3)n2n1 [Compound B139, 7-((5-methyl-6-(piperazin-1-yl)pyridin-3-yl)methyl)-N2-propylimidazo[2,1-f][1,2,4]triazine-2,4-diamine]	88
CCCC(CC)Oc1nc(N)c2ncc(Cc3cnc(N4CCC(CN(C)C)CC4)c(C)c3)n2n1 (stereo not shown) [Compound B164, 7-((6-(4-((dimethylamino)methyl)piperidin-1-yl)-5-methylpyridin-3-yl)methyl)-2-(hexan-3-yloxy)imidazo[2,1-f][1,2,4]triazin-4-amine]	4.1
CCC[C@@H](C)Nc1nc(N)c2ncc(Cc3cnc(N4CCC(CN(C)C)CC4)c(C)c3)n2n1 (single isomer, unassigned) [Compound B178]	17
CCCC(C)Oc1nc(N)c2ncc(Cc3cnc(N4CCN(C(=O)CN(C)C)CC4)c(C)c3)n2n1 (stereo not shown) [Compound B94, 1-(4-(5-((4-amino-2-(pentan-2-yloxy)imidazo[2,1-f] [1,2,4]triazin-7-yl)methyl)-3-methylpyridin-2-yl)piperazin-1-yl)-2-(dimethylamino)ethan-1-one]	13
CCC[C@@H](C)Oc1nc(N)c2ncc(Cc3cnc(N4CCC(CNC)CC4)c(C)c3)n2n1 (single isomer, unassigned) [Compound B222]	60
CCCCNc1nc(N)c2ncc(Cc3cnc(N4CCC(N)CC4)c(C)c3)n2n1 [Compound B88, 7-((6-(4-aminopiperidin-1-yl)-5-methylpyridin-3-yl)methyl)-N2-butylimidazo[2,1-f][1,2,4]triazine-2,4-diamine]	61
CCCCOc1nc(N)c2ncc(Cc3cnc(N4CCN[C@H](C)C4)c(C)c3)n2n1 [Compound B97, (R)-2-butoxy-7-((5-methyl-6-(3-methylpiperazin-1-yl)pyridin-3-yl)methyl)imidazo[2,1-f][1,2,4]triazin-4-amine]	163
CCCCCCCCCCCCCCCCCC(=O)N1CCN(c2ncc(Cc3cnc4c(N)nc(OCCCC)nn34)cc2C)CC1 [Compound B129, 1-(4-(5-((4-amino-2-butoxyimidazo[2,1-f][1,2,4]triazin-7-yl)methyl)-3-methylpyridin-2-yl)piperazin-1-yl)octadecan-1-one]	> 10000
